In US5843399A, “DTPA monoamides for MRI” (Schering Aktiengesellschaft, priority 1990, dated 1998):

How the values were obtained:
human serum albumin = assay: Association with human serum albumin in aqueous solution; assay type: binding
[1] = tested on: liver / Brown-Pearce tumor; assay: In vivo NMR diagnosis, intravenous, liver with Brown-Pearce tumor; design: species or system rat; conditions: i.v., 0.1 mmol of Gd/kg, 60 minutes after administration
Description: (§1) A cell suspension of the Brown-Pearce tumor was injected in the liver in a test animal (rat, strain lew/mol, female, 155 g) two weeks before the test. In the method used, about 2 weeks were required until the tumor had reached the size of 0.5-1 cm^3 desired for the test.
(§2) For the test, the animal was anesthetized (Rompun+Ketavet) and then a catheter was placed in the caudal vein for the administration of the contrast medium.
The imaging took place in an MRI experimental device of the General Electric company (field strength 2 teslas). The first image was made without contrast media with a T1 -weighted spin echo sequence (TR=400 msec, TE=20 msec, layer thickness 3 mm). […] 2 was taken 60 minutes after the administration of the contrast medium under conditions which were otherwise the same as image no.

stomach = conditions: i.v., 0.1 mmol of Gd/kg, 60 minutes after administration (image no. 2)
Description: as §1, §2
The imaging took place in an MRI experimental device of the General Electric company (field strength 2 teslas). The first image was made without contrast media with a T1 -weighted spin echo sequence (TR=400 msec, TE=20 msec, layer thickness 3 mm). […] Then, the administration of the contrast medium [gadolinium complex of 3,6-bis(carboxymethyl)-9-(10-carboxydecylcarbamoylmethyl)-3,6,9-triazaundecanedioic acid, Example 1b)] took place through the vein catheter with a dose of 0.1 mmol of Gd/kg (concentration of the solution of 0.05 mmol/ml in 0.9% NaCl, i.e. a clinically usual dose, e.g., in the case of the commercial preparation Magnevist®). […] 2 was taken 60 minutes after the administration of the contrast medium under conditions which were otherwise the same as image no.

liver = conditions: p.o., 0.5 mmol of Gd/kg
Description: In another animal (rat, strain Lew/mol, female, 200 g), the same contrast medium was administered orally with a p.o. sample in a dose of 0.5 mmol of Gd/kg (concentration of the solution 0.033 mmol of Gd/ml, in 0.9% NaCl). The animal was anesthetized 30 minutes after the administration and examined under the same conditions as described in the first case.

SMILES	association with human serum albumin (human serum albumin)	concentration of the contrast medium in liver and tumor [1]	appearance of the liver parenchyma in MRI image ([1]; 2 teslas, T1-weighted spin echo)	appearance of the tumor in MRI image ([1]; Brown-Pearce tumor in liver)	enhancement of the stomach (stomach)	signal in the liver, 45 minutes (liver; 45 minutes after administration (image 3))	enhancement in the liver, 180 minutes (liver; 180 minutes after administration (image 4))
CCCCCCC(CCCCCCCCCCC(=O)O)NC(=O)CN(CCN(CCN(CC(=O)O)CC(=O)O)CC(=O)O)CC(=O)O.[Gd] (stereo not shown) [Example 4b, Gadolinium complex of 3,6-bis(carboxymethyl)-9-(11-carboxy-1-n-hexyl-undecylcarbamoylmethyl)-3,6,9-triazaundecanedioic acid]	forms associates in aqueous solution with human serum albumin	–	–	–	–	–	–
O=C(O)CCCCCCCCCCNC(=O)CN(CCN(CCN(CC(=O)O)CC(=O)O)CC(=O)O)CC(=O)O.[Gd] [Example 1b, Gadolinium complex of 3,6-bis(carboxymethyl)-9-(10-carboxydecylcarbamoylmethyl)-3,6,9-triazaundecanedioic acid]	–	concentrated in the liver to a great extent, but, not in the tumor	very bright	considerably darker in comparison with the surrounding liver tissue	very strong enhancement of the stomach	a slight increase in the signal in the liver	A marked enhancement in the liver
